Test results as given in patent US6900019B1, “In-situ cell extraction and assay method” (Amersham Biosciences UK Limited, priority 1997, dated 2005).

Biological target: T1, Interleukin-6 / anti-IL-6 antibody binding (Homo sapiens, UniProt P05231)
T1 construct: purchased Amersham RPN 2754
Experiment: IL-6 ELISA standard curves with lysis reagent and sequestrant
Conditions: 1% DTAB in standards
Experimental: Working standards (10.24400 pg/ml IL-6) were prepared in polypropylene tubes using assay buffer containing 1% (w/v) DTAB. The biotinylated antibody was prepared in buffer containing 3% (w/v) alpha-cyclodextrin. 50 μl of biotinylated antibody (containing cyclodextrin) was added to the anti-IL-6 coated plate. 50 μl of working standard and cell lysate was pipetted into separate wells of the anti-IL-6 coated plate. Non-specific binding was measured in the absence of IL-6 (zero IL-6 standard). The order of addition of biotinylated antibody and samples/standards is not critical to the procedure. […] The optical density was determined with a microtitre plate spectrophotometer set at 450 nm. Interleukin-6 levels were determined using log/linear analysis with reference to a standard curve. […]
(§1) Interleukin-6 standards (10.24-400 pg/ml) were prepared in standard diluent either in the presence (□) or absence (●) of lysis reagent (1% w/v DTAB). […] The plate was incubated for 2 hours at room temperature, and the optical density measured as described under the methods section.
as §1

T1 sequence (P05231 30-212): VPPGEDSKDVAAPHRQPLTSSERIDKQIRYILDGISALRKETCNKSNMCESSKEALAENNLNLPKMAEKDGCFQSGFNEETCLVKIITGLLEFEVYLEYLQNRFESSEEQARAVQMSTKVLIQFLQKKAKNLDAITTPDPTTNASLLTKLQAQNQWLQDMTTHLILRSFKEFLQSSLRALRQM

SMILES | antibody binding in the IL-6 ELISA (3% (w/v) alpha-cyclodextrin in biotinylated antibody) | antibody binding in the IL-6 ELISA (zero cyclodextrin)
OC[C@H]1O[C@@H]2O[C@H]3[C@H](O)[C@@H](O)[C@@H](O[C@H]4[C@H](O)[C@@H](O)[C@@H](O[C@H]5[C@H](O)[C@@H](O)[C@@H](O[C@H]6[C@H](O)[C@@H](O)[C@@H](O[C@H]7[C@H](O)[C@@H](O)[C@@H](O[C@H]1[C@H](O)[C@H]2O)O[C@@H]7CO)O[C@@H]6CO)O[C@@H]5CO)O[C@@H]4CO)O[C@@H]3CO [CD, alpha-cyclodextrin] | Binding was restored | –
CCCCCCCCCCCC[N+](C)(C)C.[Br-] [DTAB, dodecyl trimethyl ammonium bromide] | – | inhibition of antibody binding
